# Results: patent US4539149A, “β-Lactam antibacterial agents” (Beecham Group p.l.c., priority 1981, dated 1985)
# Structures can show the parent of a compound that is named as a salt.
# Tested on: P. mirabilis 889
# Test: MIC against P. mirabilis 889
# Type: cell-based
# Conditions: P. mirabilis 889
row,MIC against P. mirabilis 889 [µg/mL],Compound
1,25,"CC(=O)OCC1=C(C(=O)O)N2C(=O)[C@@](NC=O)(NC(=O)C(NC(N)=O)c3cccs3)[C@H]2SC1 (single isomer, unassigned) [Example 52 (Isomer 2), 7β-[2-[(Aminocarbonyl)amino]-2-(thien-2-yl)acetamido]-7α-formamidocephalosporanic acid, sodium salt (Isomer 2)]"
2,125,"CC(=O)OCC1=C(C(=O)O)N2C(=O)[C@@](NC=O)(NC(=O)C(NC(N)=O)c3cccs3)[C@H]2SC1 (single isomer, unassigned) [Example 52 (Isomer 1), 7β-[2-[(Aminocarbonyl)amino]-2-(thien-2-yl)acetamido]-7α-formamidocephalosporanic acid, sodium salt (Isomer 1)]"

# Same assay, conditions: Proteus mirabilis, 889
row,Compound,MIC [µg/mL]
1,"CNC(=O)C[C@@H](N)C(=O)N[C@@H](C(=O)N[C@]1(NC=O)C(=O)N2[C@@H](C(=O)O)C(C)(C)S[C@@H]21)c1ccc(O)cc1 [Example 50, 6β-[D-2-[D-2-amino-3-(N-methylcarbamoyl)propionamido]-2-(4-hydroxyphenyl)acetamido]-6α-formamidopenicillanic acid, sodium salt]",1

# Same assay, conditions: Proteus mirabilis, 889, P. mirabilis 889
row,Compound,MIC [µg/mL]
1,"CC1(C)S[C@H]2N(C(=O)[C@@]2(NC=O)NC(=O)[C@H](N)c2ccccc2)[C@H]1C(=O)O [Example 8, 6α-Formamido-6β-(D-2-amino-2-phenylacetamido)penicillanic acid]",25
2,"CC1(C)S[C@H]2N(C(=O)[C@@]2(NC=O)NC(=O)C(C(=O)O)c2ccccc2)[C@H]1C(=O)O (stereo partly drawn) [Example 2, 6α-Formamido-6β-(2-carboxy-2-phenylacetamido)penicillanic acid, di-sodium salt]",50
3,"CC1(C)S[C@H]2N(C(=O)[C@@]2(NC=O)NC(=O)[C@H](NC(=O)c2cnc3ncnn3c2O)c2ccccc2)[C@H]1C(=O)O [Example 14, 6α-Formamido-6β-[D-2-(7-hydroxy-1,2,4-triazolo[2,3-a]pyrimidin-6-ylcarboxamido)-2-phenylacetamido]penicillanic acid, disodium salt]",> 100
4,"CCN1CCN(C(=O)NC(C(=O)N[C@]2(NC=O)C(=O)N3C(C(=O)O)=C(CSc4nnnn4C)CS[C@@H]32)c2ccc(OC(C)=O)c(OC(C)=O)c2)C(=O)C1=O (single isomer, unassigned) [Example 57 (isomer 2), 7β-[2-(3,4-Diacetoxyphenyl)-2-[(4-ethyl-2,3-dioxopiperazin-1-yl)carbonylamino]acetamido]-7α-formamido-3-[(1-methyl-1H-tetrazol-5-yl)thiomethyl]ceph-3-em-4-carboxylic acid, sodium salt, isomer 2]",0.1
5,"CC(=O)OCC1=C(C(=O)O)N2C(=O)[C@@](NC=O)(NC(=O)[C@H](N)c3ccccc3)[C@H]2SC1 [Example 35, 7β-(D-2-Amino-2-phenylacetamido)-7α-formamidocephalosporanic acid, trifluoroacetic acid salt]",> 100
6,"CCN1CCN(C(=O)N[C@@H](C(=O)N[C@]2(NC=O)C(=O)N3[C@@H](C(=O)O)C(C)(C)S[C@@H]32)c2cccs2)C(=O)C1=O [Example 26, 6β-[D-2-(4-Ethyl-2,3-dioxopiperazin-1-yl)carbonylamino]-2-(thien-2-yl)acetamido]-6α-formamidopenicillanic acid, sodium salt]",0.1
7,"Cc1ccc2c(O)c(C(=O)N[C@@H](C(=O)N[C@]3(NC=O)C(=O)N4[C@@H](C(=O)O)C(C)(C)S[C@@H]43)c3ccc(O)cc3)cnc2n1 [Example 49, 6α-Formamido-6β-[D-2-[(4-hydroxy-7-methyl-1,8-naphthyridin-3-yl)carbonylamino]-2-(4-hydroxyphenyl)acetamido]penicillanic acid, sodium salt]",5
8,"CC1(C)S[C@H]2N(C(=O)[C@@]2(NC=O)NC(=O)[C@H](NC(=O)c2cnc(NCc3ccccc3)nc2O)c2ccccc2)[C@H]1C(=O)O [Example 15, 6α-Formamido-6β-[D-2-(2-benzylamino-4-hydroxypyrimidin-5-ylcarboxamido)-2-phenylacetamido]penicillanic acid, disodium salt]",50
9,"CCN1CCN(C(=O)N[C@@H](C(=O)N[C@]2(NC=O)C(=O)N3C(C(=O)O)=C(COC(C)=O)CS[C@@H]32)c2ccc(O)cc2)C(=O)C1=O [Example 39, 7β-[D-2-[(4-Ethyl-2,3-dioxopiperazin-1-yl)carbonylamino]-2-(4-hydroxyphenyl)acetamido]-7α-formamidocephalosporanic acid, sodium salt]",0.2
10,"CC(=O)OCC1=C(C(=O)O)N2C(=O)[C@@](NC=O)(NC(=O)C(C(=O)O)c3ccsc3)[C@H]2SC1 (stereo partly drawn) [Example 43, 7β-[2-Carboxy-2-(thien-3-yl)acetamido]-7α-formamido cephalosporanic acid, disodium salt]",100
11,"CC(=O)OCC1=C(C(=O)O)N2C(=O)[C@@](NC=O)(NC(=O)Cc3cccs3)[C@H]2SC1 [Example 42, 7α-Formamido-7β-(thien-2-ylacetamido)cephalosporanic acid, sodium salt]",10
12,"CCN1CCN(C(=O)N[C@H](C(=O)N[C@]2(NC=O)C(=O)N3C(C(=O)O)=C(COC(C)=O)CS[C@@H]32)c2ccc(O)cc2)C(=O)C1=O [Example 40, 7β-[L-2-[(4-Ethyl-2,3-dioxopiperazin-1-yl)carbonylamino]-2-(4-hydroxyphenyl)acetamido]-7α-formamidocephalosporanic acid, sodium salt]",100
13,"CCN1CCN(C(=O)N[C@H](C(=O)N[C@]2(NC=O)C(=O)N3[C@@H](C(=O)O)C(C)(C)S[C@@H]32)c2ccc(O)c(O)c2)C(=O)C1=O [Example 58, 6β-[L-2-[(4-ethyl-2,3-dioxopiperazin-1-yl)carbonyllamino]-2-(3,4-dihydroxyphenyl)acetamido]-6α-formamidopenicillanic acid, sodium salt]",100
14,"CC1(C)S[C@H]2N(C(=O)[C@@]2(NC=O)NC(=O)[C@H](NC(=O)Nc2cnc(Nc3ccccc3)nc2O)c2ccc(O)cc2)[C@H]1C(=O)O [Example 32, 6α-Formamido-6β-[D-2-(4-hydroxyphenyl)-2-[3-[4-hydroxy-2-(phenylamino)pyrimidin-5-yl]ureido]acetamido]penicillanic acid, sodium salt]",5
15,"CCN1CCN(C(=O)N[C@@H](C(=O)N[C@]2(NC=O)C(=O)N3C(C(=O)O)=C(COC(C)=O)CS[C@@H]32)c2ccc(OC(C)=O)c(OC(C)=O)c2)C(=O)C1=O [Example 41, 7β-[D-2-[(4-Ethyl-2,3-dioxopiperazin-1-yl)carbonylamino]-2-(3,4-diacetoxyphenyl)acetamido]-7α-formamidocephalosporanic acid, sodium salt]",0.1
16,"CCN1CCN(C(=O)N[C@@H](C(=O)N[C@]2(NC=O)C(=O)N3[C@@H](C(=O)O)C(C)(C)S[C@@H]32)c2ccc(OC(C)=O)c(OC(C)=O)c2)C(=O)C1=O [Example 18, 6β-[D-2-[(4-Ethyl-2,3-dioxopiperazin-1-yl)carbonylamino]-2-(3,4-diacetoxyphenyl)acetamido]-6α-formamidopenicillanic acid, sodium salt]",0.5

# Next, values leading:
row,MIC [µg/mL],Compound
1,0.5,"CC1(C)S[C@H]2N(C(=O)[C@@]2(NC=O)NC(=O)[C@H](NC(=O)N2CCN(S(C)(=O)=O)C2=O)c2ccccc2)[C@H]1C(=O)O [Example 12, 6α-Formamido-6β-[D-2-(3-methylsulphonyl-2-oxoimidazolidin-1-ylcarbonylamino)-2-penylacetamido]penicillanic acid, sodium salt]"
2,1,"CC1(C)S[C@H]2N(C(=O)[C@@]2(NC=O)NC(=O)[C@H](NC(=O)N2CCNC2=O)c2ccccc2)[C@H]1C(=O)O [Example 11, 6α-Formamido-6β-[D-2-(2-oxoimidazolidin-1-ylcarbonylamino)-2-phenylacetamido]penicillanic acid sodium salt]"
3,100,"CCN1CCN(C(=O)N[C@@H](C(=O)N[C@]2(NC=O)C(=O)N3[C@@H](C(=O)O)C(C)(C)S[C@@H]32)[C@H](C)OCc2ccccc2)C(=O)C1=O [Example 30, 6β-[(2R,3S)-3-Benzyloxy-2-[(4-ethyl-2,3-dioxopiperazin-1-yl)carbonylamino]butyramido]-6α-formamidopenicillanic acid, sodium salt]"
4,10,"Cn1nnnc1SCC1=C(C(=O)O)N2C(=O)[C@@](NC=O)(NC(=O)Cc3cccs3)[C@H]2SC1 [Example 53, 7α-Formamido-7β-[2-(thien-2-yl)acetamido]-3-[(1-methyl-1H-tetrazol-5-yl)thiomethyl]ceph-3-em-4-carboxylic acid, sodium salt]"
5,5,"CC1(C)S[C@H]2N(C(=O)[C@@]2(NC=O)NC(=O)[C@H](NC(=O)Nc2cnc(Nc3ccccc3)nc2O)c2ccccc2)[C@H]1C(=O)O [Example 7, 6α-Formamido-6β-[D-2-(2-phenylamino-4-hydroxypyrimidin-5-ylureido)-2-phenylacetamido]penicillanic acid, di-sodium salt]"
6,10,"CCOC(=O)c1[nH]cnc1C(=O)N[C@@H](C(=O)N[C@]1(NC=O)C(=O)N2[C@@H](C(=O)O)C(C)(C)S[C@@H]21)c1ccc(O)cc1 [Example 25, 6β-[D-2-[(5-Ethoxycarbonylimadazol-4-yl)carbonylamino]-2-(4-hydroxyphenyl)acetamido]-6α-formamidopenicillanic acid, sodium salt]"
7,100,"CC(=O)OCC1=C(C(=O)O)N2C(=O)[C@@](NC=O)(NC(=O)Cc3csc(N)n3)[C@H]2SC1 [Example 46, 7β-[2-(2-Aminothiazol-4-yl)acetamido]-7α-formamidocephalosporanic acid, trifluoroacetic acid salt]"
8,0.2,"CCN1CCN(C(=O)N[C@@H](C(=O)N[C@]2(NC=O)C(=O)N3C(C(=O)O)=C(COC(C)=O)CS[C@@H]32)c2ccccc2)C(=O)C1=O [Example 36, 7β-[D-2-[(4-Ethyl-2,3-dioxopiperazin-1-yl)carbonylamino]-2-phenylacetamido]-7α-Formamidocephalosporanic acid, sodium salt]"
9,0.25,"CC1(C)S[C@H]2N(C(=O)[C@@]2(NC=O)NC(=O)[C@H](NC(=O)N2CCN(N=Cc3ccco3)C2=O)c2ccc(O)cc2)[C@H]1C(=O)O [Example 20, 6α-Formamido-6β-[D-2-[[3-(furan-2-ylmethyleneamino)-2-oxoimidazolidin-1-yl]carbonylamino]-2-(4-hydroxyphenyl)acetamido]penicillanic acid, sodium salt]"
